# Patent US20150177228A1, “DEVICE AND METHOD FOR SCREENING FOR BIOACTIVE MATERIALS USING VISUAL RECOGNITION OF ANIMALS” (GENOMIC DESIGN BIOENGINEERING COMPANY, priority 2012, published 2015)
# Tested on: zebrafish 4 days post fertilization
# Test: Zebrafish colour preference (visual perception response) test in water tank with blue and yellow passage portions
# Conditions: as the alcohol concentration of the medium increased (0%, 0.5%, 1%, 2%); 10 zebrafish, 30-minute intervals, FIG. 5
# Source text: 5) The image stored in each of the first to fifth image files was read at 2-minute intervals to count the number of zebrafish in the first passage portion 112 fitted with the first fitting body 120 (preferred color) or the second passage portion 113 fitted with the second fitting body 130 (dislike color).
compound,measurement,value
CCO [alcohol],"visual perception response of the zebrafish (distribution between first passage portion, preferred color, and second passage portion, dislike color)",scattered in both the first passage portion 112 and the second passage portion 113
